The text below walks through data of paper PMC11784839, “Monoaminergic neurotransmitters are bimodal effectors of tau aggregation” (Science Advances, 2025).

Molecules are shown by their SMILES.

The target in this assay is tau (Homo sapiens, UniProt P10636). Briefly: MCE Phenols Library screening, tau biosensor cell seeding assay (AvZ). In kind it is cell-based. To be noted: for Z repl 1 / Z Repl 2: Z score; for Z repl 1 / raw data 1: replicate 1; for raw data 2 / Z Repl 2: replicate 2.
[1] abbreviates: average Z score of the two replicates, MCE Phenols Library screen.
Where [2] appears, read: average Z score of two replicates, Phenols Library screen.
Where [3] appears, read: average Z score of the two replicates, tau seeding.
[4] abbreviates: average puncta of the two replicates.

tau, sequence (P10636 623-695 limits assumed): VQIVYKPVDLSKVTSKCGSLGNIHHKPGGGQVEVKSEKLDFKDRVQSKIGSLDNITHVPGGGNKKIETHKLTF

As to `OC[C@H]1O[C@@H](Oc2cc3c(O)cc(O)cc3[o+]c2-c2cc(O)c(O)c(O)c2)[C@H](O)[C@@H](O)[C@@H]1O.[Cl-]` [Delphinidin 3-glucoside (chloride)], the “Z repl 1” value is -1.229. In addition, the “av Z” value under setting [1] is -1.2. In addition, the av puncta (average of raw data 1 and 2) was determined as 5928.77. For the setting “puncta”, the “raw data 1” value is recorded as 11598.4 and the “raw data 2” value is given as 259.098.
Regarding `Oc1cc(O)c2cc(O)c(-c3cc(O)c(O)c(O)c3)[o+]c2c1.[Cl-]` [Delphinidin (chloride)], the “Z Repl 2” value is given as -0.674. In addition, the “av Z” value under setting [1] is reported as -1.417. In addition, where the note is “average of raw data 1 and 2”, the av puncta is 2997.99. For the same compound, where the note is “puncta”, the “raw data 1” value stood at 426.071 and the “raw data 2” value came out at 5569.91.
Consider `COc1ccc2cc3[n+](cc2c1OC)CCc1cc(O)c(O)cc1-3` [Demethyleneberberine], for which the “Z repl 1” value is -0.088 and the “Z Repl 2” value is on record as -0.204. In addition, the “av Z” value under setting [2] was -0.146. Moreover, the av puncta (average of raw data 1 and 2) was 17943.1. Where the note is “puncta”, the “raw data 1” value turned out to be 25297.3 and the “raw data 2” value is 10588.9.
For the compound `Oc1ccc(OC2CCCCO2)cc1` (stereo not shown) [Deoxyarbutin], the “Z repl 1” value was 0.557 and the “Z Repl 2” value was -0.129. The “av Z” value under setting [3] was found to be 0.214. This compound also gave an av puncta (average of raw data 1 and 2) of 22209.6. Further, under “puncta”, the “raw data 1” value is recorded as 33032.9 and the “raw data 2” value came to 11386.3.
On to `COc1cc([C@@H]2c3cc4c(cc3C[C@H]3COC(=O)[C@@H]32)OCO4)cc(OC)c1OC` [Deoxypodophyllotoxin], for which the “Z repl 1” value turned out to be 3.44 and the “Z Repl 2” value came out at 3.821. Besides, for the setting “average Z score of the two replicates, tau biosensor seeding, MCE Phenols Library screen”, the “av Z” value is recorded as 3.63. The same compound gave an av puncta (average of raw data 1 and 2) of 60606.3. For the setting “puncta”, the “raw data 1” value is 67641.6 and the “raw data 2” value is 53571.1.
For `COc1ccc(/C=C/c2cc(O)cc(O[C@@H]3O[C@H](CO)[C@@H](O)[C@H](O)[C@H]3O)c2)cc1` [Desoxyrhaponticin], the “Z repl 1” value amounted to 0.811 and the “Z Repl 2” value was -0.238. In addition, the “av Z” value under setting [3] is listed as 0.286. For the same compound, the av puncta (average of raw data 1 and 2) was 23150.9. In addition, where the note is “puncta”, the “raw data 1” value was 36082.1 and the “raw data 2” value came to 10219.6.
For the compound `COc1cc(-c2coc3cc4c(c(O)c3c2=O)OCO4)cc(O)c1OC` [Dichotomitin], the “Z repl 1” value is on record as 0.855 and the “Z Repl 2” value came out at 0.348. For the same compound, the “av Z” value under setting [3] is reported as 0.602. The av puncta (average of raw data 1 and 2) is given as 26548.7. Besides, where the note is “puncta”, the “raw data 1” value came out at 36614.6 and the “raw data 2” value was 16482.8.
In the case of `O=C(O)CCc1ccc(O)c(O)c1` [Dihydrocaffeic acid], the “Z repl 1” value came out at 0.014 and the “Z Repl 2” value is reported as -0.922. Also, where the note is “10 μM phenol in cell cultures, AD brain homogenate preincubated 16 hours, two biological replicates, positive = catalyzes seeding, negative = inhibits”, the “AvZ (average z score of seeding, SDs from the mean level of seeding)” value is given as -0.454. Also, under setting [4], the av puncta is 14716.5. Further, under “raw puncta”, the “raw data 1” value is given as 26515.6 and the “raw data 2” value is given as 2917.33.
Regarding `O=C1c2ccc(O)cc2OCC1c1ccc(O)cc1` (stereo not shown) [Dihydrodaidzein], the “Z repl 1” value was -0.987 and the “Z Repl 2” value is reported as -0.442. In addition, under setting [1], the “av Z” value was -0.715. Moreover, under setting [4], the av puncta came to 11271.3. Moreover, where the note is “puncta”, the “raw data 1” value was 14500 and the “raw data 2” value is on record as 8042.62.
On to `COc1cc(CC(C)C(C)Cc2ccc(O)c(OC)c2)ccc1O` (stereo not shown) [Dihydroguaiaretic acid], for which the “Z repl 1” value was -0.958 and the “Z Repl 2” value is reported as -0.625. Under setting [1], the “av Z” value is reported as -0.792. Moreover, where the note is “average of raw data 1 and 2”, the av puncta is 10465.9. For the same compound, where the note is “puncta”, the “raw data 1” value came out at 14843.2 and the “raw data 2” value came out at 6088.67.
As for `O=C1c2c(O)cc(O)cc2O[C@H](c2ccc(O)cc2)[C@H]1O` [Dihydrokaempferol], the “Z repl 1” value is -0.147 and the “Z Repl 2” value was 0.084. In addition, under setting [2], the “av Z” value is reported as -0.031. Further, under “average of raw data 1 and 2”, the av puncta came to 19127. Further, under “puncta”, the “raw data 1” value worked out at 24585.9 and the “raw data 2” value amounted to 13668.2.
